Measurements published in ChEMBL document CHEMBL3044600 (Biochem Syst Ecol, 2008).
≈ marks a conversion by molar mass, not a printed value. Calls of active or inactive are those of the source. No cut-off for these calls is given here.

Legend:
[1] = tested on: Rhopalosiphum padi; test: Antifeedant activity against Rhopalosiphum padi adults fed on compound treated Hordeum vulgare annuum leaves assessed as feeding level at 50 ug/cm2 (reference value: 47 to 64%); assay type: functional
[2] = tested on: Lactuca sativa; test: Phytotoxicity against Lactuca sativa var. Carrascoy (lettuce) assessed as inhibition of seed germination at 50 ug/cm2 after 24 hr; assay type: functional, organism-based
[3] = tested on: Leptinotarsa decemlineata; test: Antifeedant activity against Leptinotarsa decemlineata adults fed on compound treated Capsicum annuum leaves assessed as inhibition of feeding; assay type: functional, organism-based
[4] = tested on: Spodoptera littoralis; test: Antifeedant activity against Spodoptera littoralis L6 larvae assessed as food consumption level orally dosed with 40 ug after 72 hr relative to untreated control; assay type: functional
[5] = tested on: Spodoptera littoralis; test: Antifeedant activity against Spodoptera littoralis sixth-instar larvae fed on compound treated Solanum tuberosum leaves assessed as inhibition of feeding; assay type: functional, organism-based
[6] = tested on: Myzus persicae; test: Antifeedant activity against Myzus persicae (green peach aphid) adults fed on compound treated […] annuum leaves assessed as feeding level at 50 ug/cm2 (reference value: 43 to 70%); assay type: functional
[7] = tested on: Spodoptera littoralis; test: Antifeedant activity against Spodoptera littoralis L6 larvae assessed as biomass gain orally dosed with 40 ug after 72 hr relative to untreated control; assay type: functional
[8] = tested on: Lactuca sativa; test: Phytotoxicity against Lactuca sativa var. Carrascoy (lettuce) assessed as inhibition of radicle length at 50 ug/cm2 after 24 to 144 hr; assay type: functional
[9] = Toxicity against Cricetulus griseus CHO (Chinese hamster ovary) cell by MTT assay; assay type: cell-based; settings: CHO cells
[10] = tested on: Lactuca sativa; test: Phytotoxicity against Lactuca sativa var. Carrascoy (lettuce) assessed as inhibition of seed germination at 50 ug/cm2 up to 144 hr; assay type: functional, organism-based
[11] = tested on: Lactuca sativa; test: Phytotoxicity against Lactuca sativa var. Carrascoy (lettuce) assessed as inhibition of seed germination at 50 ug/cm2 after 96 hr; assay type: functional, organism-based
[12] = Toxicity against Spodoptera frugiperda (fall armyworm) Sf9 cells by MTT assay; assay type: cell-based
[13] = tested on: Lactuca sativa; test: Phytotoxicity against Lactuca sativa var. Carrascoy (lettuce) assessed as inhibition of seed germination at 50 ug/cm2 after 48 hr; assay type: functional, organism-based
[14] = tested on: Lactuca sativa; test: Phytotoxicity against Lactuca sativa var. Carrascoy (lettuce) assessed as inhibition of seed germination at 50 ug/cm2 after 72 hr; assay type: functional, organism-based

Row | SMILES | Activity [1] [%] | inhibition [2] | EC50 [3] [microg/cm2] | Activity [4] [%] | EC50 [5] [microg/cm2] | Activity [6] [%] | Activity [7] [%] | inhibition at 50 µg/cm2 [8] [%] | EC50 [9] [µg/mL] | inhibition [10] | inhibition [11] | EC50 [12] [µg/mL] | inhibition [13] | inhibition [14]
1 | C/C=C1/C[C@@]2(CO)O[C@@]2(C)C(=O)OCC2=CCN3CC[C@@H](OC1=O)[C@@H]23 [ERUCIFOLINE] | 43 | Active | > 50 | 102 | > 50 | 31 | 106 | < 50 | – | – | – | – | – | –
2 | C[C@H]1C(=O)O[C@@H]2CCN3CC=C(COC(=O)[C@](C)(O)[C@]1(C)O)[C@H]23 [MONOCROTALINE] | 37 | Active | > 50 | 98 | > 50 | 49 | 47 | < 50 | > 100 | Active | Active | > 100 | Active | Active
3 | C/C=C1/C[C@@H](C)[C@](O)(CO)C(=O)OCC2=CCN3CC[C@@H](OC1=O)[C@@H]23 (stereo in doubt; 7) [RETRORSINE] | – | – | – | – | – | – | – | – | > 100 | – | – | – | – | –
4 | C/C=C1\C[C@@H](C)[C@](O)(CO)C(=O)OCC2=CCN3CC[C@@H](OC1=O)[C@@H]23 (stereo in doubt; 8) [RETRORSINE] | 40 | – | – | 92 | – | 30 | 102 | < 50 | > 100 | – | – | > 100 | – | –
5 | C/C=C1/C[C@@H](C)[C@@](C)(OC(C)=O)C(=O)OC/C2=C/CN(C)CC[C@@H](OC1=O)C2=O [ACETYLSENKIRKINE] | 42 | Active | > 50 | 88 | > 50 | 35 | 100 | < 50 | – | – | – | – | Active | –
6 | C/C=C1\C[C@@H](C)[C@](O)(CO)C(=O)OCC2=CCN3CC[C@@H](OC1=O)[C@@H]23 (stereo in doubt; 8) | – | Active | – | – | – | – | – | – | – | – | – | – | – | –
7 | C=C1C(=O)O[C@@H]2CCN3CC=C(COC(=O)[C@](C)(O)[C@H](C)[C@H]1C)[C@H]23 | – | – | > 50 | 98 | > 50 | – | 90 | < 50 | 13.2 (≈ 39.4 µM) | – | – | > 100 | – | –
8 | C/C=C1\C[C@@H](C)[C@@](C)(O)C(=O)OC/C2=C/CN(C)CC[C@@H](OC1=O)C2=O [SENKIRKINE] | 53 | Active | > 50 | 105 | > 50 | 35 | 116 | < 50 | – | – | Active | – | Active | Active
9 | C/C=C1\C[C@@H](C)[C@](O)(CO)C(=O)OCC2=CCN3CC[C@@H](OC1=O)[C@@H]23 (stereo in doubt; 7) [RETRORSINE] | 46 | – | > 50 | 88 | > 50 | 44 | 90 | – | – | – | – | – | – | –
10 | C=C1C/C(=C\C)C(=O)O[C@@H]2CCN3CC=C(COC(=O)[C@]1(C)O)[C@H]23 [SPARTIOIDINE] | 42 | – | 4.8 | 97 | 0.2 | 35 | 90 | < 50 | > 100 | – | – | > 100 | – | –
11 | C/C=C1\C[C@@H](C)[C@](O)(CO)C(=O)OCC2=CCN3CC[C@@H](OC1=O)[C@@H]23 (stereo in doubt; 7) | – | Active | – | – | – | – | – | – | – | – | – | – | – | –
12 | C/C=C(/C)C(=O)O[C@@H]1CCN2CC=C(COC(=O)[C@@](O)([C@H](C)O)C(C)(C)O)[C@H]12 [ECHIMIDINE] | 36 | – | 1.4 | 165 | > 50 | 40 | 118 | – | – | – | – | – | – | –
13 | C/C=C1/C[C@@H](C)[C@@](C)(O)C(=O)OCC2=CCN3CC[C@@H](OC1=O)[C@@H]23 [SENECIONINE] | 40 | – | 1.3 | 84 | > 50 | 40 | 84 | < 50 | > 100 | – | – | > 100 | – | –
14 | C/C=C1\C[C@@H](C)[C@](O)(COC(C)=O)C(=O)OCC2=CCN3CC[C@@H](OC1=O)[C@@H]23 [ACETYLUSARAMINE] | – | Active | – | 106 | – | 40 | 60 | < 50 | > 100 | – | – | > 100 | – | –
15 | C/C=C1\C[C@@H](C)[C@@](C)(O)C(=O)OCC2=CCN3CC[C@@H](OC1=O)[C@@H]23 [INTEGERRIMINE] | 43 | – | 3.4 | 88 | > 100 | 57 | 89 | < 50 | > 100 | – | – | > 100 | – | –
16 | C/C=C(/C)C(=O)O[C@@H]1CC[N+]2([O-])CC=C(COC(=O)[C@@](O)([C@H](C)O)C(C)(C)O)[C@H]12 (stereo not given in full) [ECHIMIDINE N-OXIDE] | 43 | – | > 50 | 113 | > 50 | 40 | 102 | – | – | – | – | – | – | –
17 | C=C1C/C(=C/C)C(=O)O[C@@H]2CCN3CC=C(COC(=O)[C@]1(C)O)[C@H]23 [SENECIPHYLLINE] | 42 | – | 1.7 | 82 | 50 | 50 | 87 | < 50 | > 100 | – | – | > 100 | – | –
